The source made the active and inactive calls. The rule behind the calls is not given here.
Key:
[1] = biological target: Early growth response protein 1 (Homo sapiens) (UniProt P18146); test: Activation of Egr1 in human AGS cells assessed as increase in cleaved caspase-7 level at 100 uM by Western blot analysis; format: cell-based
[2] = biological target: Early growth response protein 1 (Homo sapiens) (UniProt P18146); test: Activation of Egr1 in human AGS cells assessed as induction of p21 promoter activity at 12.5 to 100 uM by dual luciferase reporter gene assay in presence of si-Egr1; format: cell-based
AGS [3] = test: Cell cycle arrest in human AGS cells assessed as accumulation at G2/M phase at 25 uM after 6 hrs by propidium iodide staining-based flow cytometric analysis (reference value: 23.05 +/- 3.15%); format: functional
[4] = biological target: Early growth response protein 1 (Homo sapiens) (UniProt P18146); test: Activation of Egr1 in human AGS cells assessed as upregulation of p21 mRNA expression at 50 to 100 uM by RT-qPCR analysis in presence of si-Egr1 relative to control; format: cell-based
[5] = biological target: Early growth response protein 1 (Homo sapiens) (UniProt P18146); test: Activation of Egr1 in human AGS cells assessed as increase in cleaved caspase-3 level at 100 uM by Western blot analysis; format: cell-based
AGS [6] = test: Cell cycle arrest in human AGS cells assessed as accumulation at S phase at 50 uM after 6 hrs by propidium iodide staining-based flow cytometric analysis (reference value: 21.40 +/- 2.87%); format: functional
AGS [7] = test: Cytotoxicity against human AGS cells assessed as cell viability at 100 uM after 6 hrs by MTT assay; format: functional, cell-based
[8] = biological target: Early growth response protein 1 (Homo sapiens) (UniProt P18146); test: Activation of Egr1 in human AGS cells assessed as increase in interaction with p21 promoter by ChIP assay; format: cell-based
[9] = biological target: Early growth response protein 1 (Homo sapiens) (UniProt P18146); test: Activation of Egr1 in human AGS cells assessed as increase in cleaved PARP level at 100 uM by Western blot analysis; format: cell-based
[10] = biological target: Early growth response protein 1 (Homo sapiens) (UniProt P18146); test: Activation of Egr1 in human AGS cells assessed as increase in loss of mitochondrial membrane potential after 6 hrs by Rh-123 staining-based flow cytometric analysis relative to control; format: cell-based
[11] = biological target: Early growth response protein 1 (Homo sapiens) (UniProt P18146); test: Activation of Egr1 in human AGS cells assessed as upregulation of protein expression by Western blot analysis; format: cell-based
AGS [12] = test: Cell cycle arrest in human AGS cells assessed as accumulation at S phase at 12.5 uM after 6 hrs by propidium iodide staining-based flow cytometric analysis (reference value: 21.40 +/- 2.87%); format: functional
[13] = biological target: Early growth response protein 1 (Homo sapiens) (UniProt P18146); test: Activation of Egr1 in human AGS cells transfected with p21-pcDNA3 assessed as increase in intracellular accumulation of reactive oxygen species at 100 uM by H2DCFDA probe-based flow cytometric analysis relative to control; format: cell-based
AGS [14] = test: Cell cycle arrest in human AGS cells assessed as accumulation at G2/M phase at 50 uM after 6 hrs by propidium iodide staining-based flow cytometric analysis (reference value: 23.05 +/- 3.15%); format: functional
[15] = biological target: Early growth response protein 1 (Homo sapiens) (UniProt P18146); test: Activation of Egr1 in human AGS cells assessed as downregulation of cyclin E expression at 12.5 to 100 uM by Western blot analysis; format: cell-based
[16] = biological target: Early growth response protein 1 (Homo sapiens) (UniProt P18146); test: Activation of Egr1 in human AGS cells assessed as upregulation of p21 mRNA expression by RT-qPCR analysis; format: cell-based
[17] = biological target: Early growth response protein 1 (Homo sapiens) (UniProt P18146); test: Activation of Egr1 in human AGS cells assessed as increase in cleaved caspase-3 level at 50 to 100 uM by Western blot analysis in presence of si-Egr1; format: cell-based
[18] = biological target: Early growth response protein 1 (Homo sapiens) (UniProt P18146); test: Activation of Egr1 in human AGS cells assessed as upregulation of p21 expression at 50 to 100 uM by Western blot analysis in presence of si-Egr1; format: cell-based
[19] = biological target: Early growth response protein 1 (Homo sapiens) (UniProt P18146); test: Activation of Egr1 in human AGS cells assessed as upregulation of protein expression at 50 to 100 uM by Western blot analysis in presence of si-Egr1; format: cell-based
[20] = biological target: Early growth response protein 1 (Homo sapiens) (UniProt P18146); test: Activation of Egr1 in human AGS cells transfected with p21-pcDNA3 assessed as increase in cleaved PARP level at 50 to 100 uM by Western blot analysis; format: cell-based
[21] = biological target: Early growth response protein 1 (Homo sapiens) (UniProt P18146); test: Activation of Egr1 in human AGS cells assessed as increase in interaction with p21 promoter by dual luciferase reporter gene assay; format: cell-based
HEK293 [22] = test: Induction of apoptosis in HEK293 cells assessed as increase in cleaved caspase-9 level at 100 uM by Western blot analysis; format: cell-based; conditions: human, hek293, 100 µM
HEK293 [23] = test: Induction of apoptosis in HEK293 cells assessed as increase in cleaved caspase-3 level at 100 uM by Western blot analysis; format: cell-based; conditions: human, hek293, 100 µM
AGS [24] = test: Cytotoxicity against human AGS cells assessed as cell viability at 100 uM after 6 hrs by MTT assay in presence of caspase-3 inhibitor Ac-DEVD-CHO; format: functional, cell-based
AGS [25] = test: Cell cycle arrest in human AGS cells assessed as accumulation at G2/M phase after 6 hrs by propidium iodide staining-based flow cytometric analysis; format: functional
AGS [26] = test: Upregulation of Egr1 mRNA expression in human AGS cells by RT-qPCR analysis; format: functional, cell-based
HEK293 [27] = test: Induction of apoptosis in HEK293 cells assessed as increase in cleaved PARP level at 100 uM by Western blot analysis; format: cell-based; conditions: human, hek293, 100 µM
AGS [28] = test: Upregulation of Egr1 mRNA expression in human AGS cells at 50 to 100 uM by RT-qPCR analysis in presence of si-Egr1 relative to control; format: functional, cell-based
[29] = biological target: Early growth response protein 1 (Homo sapiens) (UniProt P18146); test: Activation of Egr1 in human AGS cells assessed as induction of p21 promoter activity by dual luciferase reporter gene assay; format: cell-based
AGS [30] = test: Cytotoxicity against human AGS cells assessed as cell viability at 100 uM after 6 hrs by MTT assay in presence of si-Egr1; format: functional, cell-based
AGS [31] = test: Cell cycle arrest in human AGS cells assessed as accumulation at S phase at 100 uM after 6 hrs by propidium iodide staining-based flow cytometric analysis (reference value: 21.40 +/- 2.87%); format: functional
[32] = biological target: Early growth response protein 1 (Homo sapiens) (UniProt P18146); test: Activation of Egr1 in human AGS cells assessed as upregulation of p21 expression by Western blot analysis; format: cell-based
AGS [33] = test: Cell cycle arrest in human AGS cells assessed as accumulation at G0/G1 phase at 100 uM after 6 hrs by propidium iodide staining-based flow cytometric analysis (reference value: 52.82 +/- 2.87%); format: functional
AGS [34] = test: Cell cycle arrest in human AGS cells assessed as accumulation at G0/G1 phase at 12.5 uM after 6 hrs by propidium iodide staining-based flow cytometric analysis (reference value: 52.82 +/- 2.87%); format: functional
[35] = biological target: Early growth response protein 1 (Homo sapiens) (UniProt P18146); test: Activation of Egr1 in human AGS cells assessed as upregulation of protein expression after 6 hrs by DAPI staining-based fluorescence microscopic analysis; format: cell-based
AGS [36] = test: Cytotoxicity against human AGS cells transfected with p21-pcDNA3 assessed as cell viability at 12.5 to 100 uM after 6 hrs by MTT assay relative to control; format: functional, cell-based
HEK293 [37] = test: Induction of apoptosis in HEK293 cells assessed as increase in cleaved caspase-7 level at 100 uM by Western blot analysis; format: cell-based; conditions: human, hek293, 100 µM
AGS [38] = test: Cell cycle arrest in human AGS cells assessed as accumulation at G2/M phase at 12.5 uM after 6 hrs by propidium iodide staining-based flow cytometric analysis (reference value: 23.05 +/- 3.15%); format: functional
[39] = biological target: Early growth response protein 1 (Homo sapiens) (UniProt P18146); test: Activation of Egr1 in human AGS cells assessed as increase in intracellular accumulation of reactive oxygen species at 100 uM by H2DCFDA probe-based flow cytometric analysis relative to control; format: cell-based
AGS [40] = test: Cell cycle arrest in human AGS cells assessed as accumulation at G2/M phase at 100 uM after 6 hrs by propidium iodide staining-based flow cytometric analysis (reference value: 23.05 +/- 3.15%); format: functional
AGS [41] = test: Cell cycle arrest in human AGS cells assessed as accumulation at G0/G1 phase at 25 uM after 6 hrs by propidium iodide staining-based flow cytometric analysis (reference value: 52.82 +/- 2.87%); format: functional
[42] = biological target: Early growth response protein 1 (Homo sapiens) (UniProt P18146); test: Activation of Egr1 in human AGS cells assessed as increase in cleaved caspase-9 level at 100 uM by Western blot analysis; format: cell-based
AGS [43] = test: Cell cycle arrest in human AGS cells assessed as accumulation at S phase at 25 uM after 6 hrs by propidium iodide staining-based flow cytometric analysis (reference value: 21.40 +/- 2.87%); format: functional
[44] = biological target: Early growth response protein 1 (Homo sapiens) (UniProt P18146); test: Activation of Egr1 in human AGS cells assessed as increase in cleaved caspase-3 level at 100 uM by Western blot analysis in presence of caspase-3 inhibitor Ac-DEVD-CHO; format: cell-based
AGS [45] = test: Cell cycle arrest in human AGS cells assessed as accumulation at G0/G1 phase at 50 uM after 6 hrs by propidium iodide staining-based flow cytometric analysis (reference value: 52.82 +/- 2.87%); format: functional
AGS [46] = test: Cytotoxicity against human AGS cells assessed as reduction in cell viability after 6 hrs by MTT assay; format: functional, cell-based
[47] = biological target: Early growth response protein 1 (Homo sapiens) (UniProt P18146); test: Activation of Egr1 in human AGS cells assessed as downregulation of cyclin A expression at 12.5 to 100 uM by Western blot analysis; format: cell-based
HEK293 [48] = test: Cytotoxicity against HEK293 cells assessed as reduction in cell viability at 12.5 to 100 uM after 6 hrs by MTT assay; format: cell-based; conditions: human, hek293, 6 h
[49] = biological target: Early growth response protein 1 (Homo sapiens) (UniProt P18146); test: Activation of Egr1 in human AGS cells assessed as induction of p21 promoter activity by ChIP assay; format: cell-based

Early growth response protein 1 (Homo sapiens), sequence (P18146 whole entry, looked up): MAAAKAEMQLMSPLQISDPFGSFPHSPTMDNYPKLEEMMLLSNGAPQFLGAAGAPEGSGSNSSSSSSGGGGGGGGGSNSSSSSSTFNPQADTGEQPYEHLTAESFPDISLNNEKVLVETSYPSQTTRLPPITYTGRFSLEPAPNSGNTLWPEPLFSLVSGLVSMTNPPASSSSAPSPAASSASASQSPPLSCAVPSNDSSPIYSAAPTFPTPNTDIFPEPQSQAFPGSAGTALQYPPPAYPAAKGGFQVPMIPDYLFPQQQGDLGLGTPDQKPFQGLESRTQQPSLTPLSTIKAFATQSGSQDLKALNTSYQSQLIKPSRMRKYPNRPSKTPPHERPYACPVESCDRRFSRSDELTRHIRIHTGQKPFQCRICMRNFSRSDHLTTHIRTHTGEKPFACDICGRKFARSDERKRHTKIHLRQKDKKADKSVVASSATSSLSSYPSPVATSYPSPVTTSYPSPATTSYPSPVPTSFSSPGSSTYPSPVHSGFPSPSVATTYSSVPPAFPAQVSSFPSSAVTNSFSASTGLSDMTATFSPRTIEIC

Activity [1]: Active
Activity [2]: inactive
Activity [4]: inactive
Activity [5]: Active
Activity [8]: Dose-dependent effect
Activity [9]: Active
Activity [10]: Dose-dependent effect
Activity [11]: Dose-dependent effect
Activity [13]: Active
Activity [15]: Active
Activity [16]: Dose-dependent effect
Activity [17]: inactive
Activity [18]: inactive
Activity [19]: inactive
Activity [20]: Active
Activity [21]: Dose-dependent effect
Activity [29]: Dose-dependent effect
Activity [32]: Dose-dependent effect
Activity [35]: Dose-dependent effect
Activity [39]: Active
Activity [42]: Active
Activity [44]: inactive
Activity [47]: Active
Activity [49]: Dose-dependent effect
Structure (SMILES): COC(=O)C1=CO[C@@H](O)[C@@H]2C(CO)=CC[C@H]12 [GENIPIN]
Activity (AGS [3]): 30.53%
Activity (AGS [6]): 28.54%
Activity (AGS [7]): Active
Activity (AGS [12]): 22.67%
Activity (AGS [14]): 33.53%
Activity (HEK293 [22]): Non-toxic
Activity (HEK293 [23]): Non-toxic
Activity (AGS [24]): inactive
Activity (AGS [25]): Dose-dependent effect
Activity (AGS [26]): Dose-dependent effect
Activity (HEK293 [27]): Non-toxic
Activity (AGS [28]): inactive
Activity (AGS [30]): inactive
Activity (AGS [31]): 27.48%
Activity (AGS [33]): 36.88%
Activity (AGS [34]): 48.45%
Activity (AGS [36]): Active
Activity (HEK293 [37]): Non-toxic
Activity (AGS [38]): 26.34%
Activity (AGS [40]): 33%
Activity (AGS [41]): 42.33%
Activity (AGS [43]): 24.66%
Activity (AGS [45]): 35.97%
Activity (AGS [46]): Dose-dependent effect
Activity (HEK293 [48]): Non-toxic
